Assay results: the SangsterLogP compilation

A logP of 2.49 was found for O=C(O)CCCCCO/N=C(\c1cccc(C(F)(F)F)c1)c1ccncn1 in this work.
A logP of 0.63 was found for O=C(O)CCCCO/N=C(\c1cncnc1)c1cccc(C(F)(F)F)c1 in this work.
A logP of 0.5 was found for O=C(O)CCCCO/N=C(\c1ccccc1)c1ncccn1 in this work.
A logP of -0.21 was found for O=C(O)CCCCO/N=C(\c1ccccc1)c1cncnc1 in this work.
A logP of 0.08 was found for O=C(O)CCCCCO/N=C(/c1ccccc1)c1ccncn1 in this work.
A logP of 1.53 was found for O=C(O)CCCCO/N=C(\c1cccc(C(F)(F)F)c1)c1ncccn1 in this work.
A logP of 1.07 was found for O=C(O)CCCCCON=C(c1ccccc1)c1ncccn1 in this work.
A logP of -0.38 was found for O=C(O)CCCO/N=C(/c1ccccc1)c1cncnc1 in this work.
A logP of 1.81 was found for O=C(O)CCCCO/N=C(/c1ccnnc1)c1cccc(C(F)(F)F)c1 in this work.
A logP of 2.19 was found for O=C(O)CCCCCO/N=C(\c1cccc(C(F)(F)F)c1)c1cccnn1 in this work.
A logP of 2.56 was found for O=C(O)CCCCCO/N=C(\c1cccc(C(F)(F)F)c1)c1cnccn1 in this work.
A logP of 1.07 was found for O=C(O)CCCCCO/N=C(\c1cncnc1)c1cccc(C(F)(F)F)c1 in this work.
A logP of 2.27 was found for O=C(O)CCCCCO/N=C(/c1ccnnc1)c1cccc(C(F)(F)F)c1 in this work.
A logP of 0.36 was found for O=C(O)CCCO/N=C(\c1ccccc1)c1ncccn1 in this work.
A logP of -0.47 was found for O=C(O)CCCO/N=C(\c1ccccc1)c1ccncn1 in this work.
A logP of 1.74 was found for O=C(O)CCCCON=C(c1cccc(C(F)(F)F)c1)c1ccncn1 in this work.
A logP of 1.08 was found for O=C(O)CCCCO/N=C(\c1cccc(C(F)(F)F)c1)c1cnccn1 in this work.
A logP of 1.94 was found for O=C(O)CCCCCO/N=C(/c1cccc(C(F)(F)F)c1)c1ncccn1 in this work.
A logP of -0.19 was found for O=C(O)CCCCO/N=C(\c1ccccc1)c1ccncn1 in this work.
